The values below come from patent US20100173832A1, “ANTICANCEROUS POLYMERIC AGENTS” (TECHNION RESEARCH & DEVELOPMENT FOUNDATION LTD., priority 2007, published 2010).

Non-standard residues stand in square brackets, D forms with d. Residues, ends and D or L forms follow the SMILES beside them. *: point of attachment. Lauroyl = CCCCCCCCCCCC(=O)*; Aoc = NCCCCCCCC(=O)O Where only a bound is given, the exact number is not on record here.

This data set can be described thus: XTT cell viability assay, non-cancerous cardiac fibroblasts (CF). The data set is classed as cell-based, rat. The settings on record: primary cardiac fibroblasts (CF); primary non-cancerous rat cardiac fibroblasts, XTT assay; read-out: CF lethal concentration. The text has this: Primary non-cancerous rat cardiac fibroblasts (CF);
As a routine cancer cell killing assay for assessment of antitumor activity, 2,3-bis(2-methoxy-4-nitro-5-sulfophenyl)-2H-tetrazolium-5-carboxanilide inner salt (XTT) reduction assay was used, utilizing a commercial kit such as, for example, Cell Proliferation XTT Kit, Cat. No. 20-300-1000, Biological Industries Ltd., Kibbutz Beit Haemek, Israel. XTT is a tetrazolium salt which is cleaved to formazan colored compounds by the mitochondrial dehydrogenase enzymes indicating proper mitochondrial activity in intact cells.
Thereafter, a series of increasing concentrations of the polymers were added. After another 24 hours of incubation, XTT reaction solution was added (50 μl of XTT per 100 μl of cell culture medium). The optical density of the cells was measured at 450 nm by ELISA plate reader after 2-4 hours XTT incubation. Cell viability was determined relative to a control having no polymer added thereto.
“Rat primary cardiac fibroblast CF” represents the lethal concentration in μM as measured against CF cell line, measured as described hereinabove in the cell proliferation XTT assay (column 8 in Table 3);
For orientation: Formazan colour is commonly taken as a measure of viable cells.
Regarding `NCCCC[C@H](NC(=O)CCCCCCCCCCCNC(=O)[C@@H](N)CCCCN)C(=O)O` [KNC12K], the CC50 at 24 h was more than 16 µM. The figure for `CCCCCCCCCCCC(=O)N[C@@H](CCCCN)C(=O)NCCCCCCCC(=O)N[C@@H](CCCCN)C(=O)N[C@@H](CCCCN)C(=O)NCCCCCCCC(=O)N[C@@H](CCCCN)C(=O)N[C@@H](CCCCN)C(=O)NCCCCCCCC(=O)N[C@@H](CCCCN)C(N)=O` [C12(KNC8K)3NH2] (Lauroyl-K[Aoc]KK[Aoc]KK[Aoc]K-NH2) is less than 16 µM; for `NCCCCCCCCCCCC(=O)N[C@@H](CCCCN)C(=O)NCCCCCCCCCCCC(=O)N[C@@H](CCCCN)C(=O)NCCCCCCCCCCCC(=O)N[C@@H](CCCCN)C(=O)NCCCCCCCCCCCC(=O)N[C@@H](CCCCN)C(=O)NCCCCCCCCCCCC(=O)N[C@@H](CCCCN)C(=O)NCCCCCCCCCCCC(=O)N[C@@H](CCCCN)C(N)=O` [(NC12K)6NH2] it is more than 16 µM.

In the case of `CCCCCCCCCCCC(=O)N[C@@H](CCCCN)C(=O)NCCCCCCCC(=O)N[C@@H](CCCCN)C(=O)N[C@@H](CCCCN)C(=O)NCCCCCCCC(=O)N[C@@H](CCCCN)C(=O)N[C@@H](CCCCN)C(=O)NCCCCCCCC(=O)N[C@@H](CCCCN)C(=O)N[C@@H](CCCCN)C(=O)NCCCCCCCC(=O)N[C@@H](CCCCN)C(N)=O` [C12(KNC8K)4NH2] (Lauroyl-K[Aoc]KK[Aoc]KK[Aoc]KK[Aoc]K-NH2), the CC50 at 24 h was less than 16 µM. With `NCCCCCCCCCCCC(=O)N[C@@H](CCCCN)C(=O)NCCCCCCCCCCCC(=O)N[C@@H](CCCCN)C(=O)O` [(NC12K)2], the CC50 at 24 h was more than 16 µM.

On to `CCCCCCCCCCCC(=O)N[C@@H](CCCCN)C(=O)NCCCCCCCC(=O)N[C@@H](CCCCN)C(N)=O` [C12(KNC8K)NH2], for which the CC50 at 24 h was less than 16 µM. Regarding `NCCCCCCCCCCCC(=O)N[C@@H](CCCCN)C(=O)NCCCCCCCCCCCC(=O)N[C@@H](CCCCN)C(=O)NCCCCCCCCCCCC(=O)N[C@@H](CCCCN)C(=O)NCCCCCCCCCCCC(=O)N[C@@H](CCCCN)C(=O)NCCCCCCCCCCCC(=O)N[C@@H](CCCCN)C(N)=O` [(NC12K)5NH2], the CC50 at 24 h was more than 16 µM. `CCCCCCCCCCCC(=O)N[C@@H](CCCCN)C(=O)NCCCCCCCCCCCC(=O)N[C@@H](CCCCN)C(=O)NCCCCCCCCCCCC(=O)N[C@@H](CCCCN)C(N)=O` [C12K(NC12K)2NH2]: the CC50 at 24 h is more than 16 µM. Next, `NCCCC[C@H](NC(=O)CCCCCCCCCCCNC(=O)[C@@H](N)CCCCN)C(N)=O` [KNC12KNH2]: more than 16 µM. The figure for `CCCCCCCCCCCC(=O)N[C@@H](CCCCN)C(=O)NCCCCCCCCCCCC(=O)N[C@@H](CCCCN)C(=O)NCCCCCCCCCCCC(=O)N[C@@H](CCCCN)C(=O)NCCCCCCCCCCCC(=O)N[C@@H](CCCCN)C(=O)O` [C12K(NC12K)3] is more than 16 µM.

As for `NCCCCCCCCCCCC(=O)N[C@@H](CCCCN)C(=O)NCCCCCCCCCCCC(=O)N[C@@H](CCCCN)C(=O)NCCCCCCCCCCCC(=O)N[C@@H](CCCCN)C(=O)O` [(NC12K)3], the CC50 at 24 h was more than 16 µM.

Take `NCCCCCCCCCCCC(=O)N[C@@H](CCCCN)C(=O)NCCCCCCCCCCCC(=O)N[C@@H](CCCCN)C(=O)NCCCCCCCCCCCC(=O)N[C@@H](CCCCN)C(N)=O` [(NC12K)3NH2]: the CC50 at 24 h was more than 16 µM.

As for `NCCCC[C@H](NC(=O)CCCCCCCCCCCNC(=O)[C@H](CCCCN)NC(=O)CCCCCCCCCCCNC(=O)[C@H](CCCCN)NC(=O)CCCCCCCCCCCNC(=O)[C@H](CCCCN)NC(=O)CCCCCCCCCCCNC(=O)[C@@H](N)CCCCN)C(N)=O` [K(NC12K)4NH2], the CC50 at 24 h worked out at 50 µM. As for `CCCCCCCCCCCC(=O)N[C@@H](CCCCN)C(=O)NCCCCCCCCCCCC(=O)N[C@@H](CCCCN)C(=O)O` [C12KNC12K], the CC50 at 24 h is more than 16 µM. With `NCCCC[C@H](NC(=O)CCCCCCCCCCCNC(=O)[C@H](CCCCN)NC(=O)CCCCCCCCCCCNC(=O)[C@@H](N)CCCCN)C(=O)O` [K(NC12K)2], the CC50 at 24 h was more than 16 µM.

As for `CCCCCCCCCCCC(=O)N[C@@H](CCCCN)C(=O)NCCCCCCCCCCCC(=O)N[C@@H](CCCCN)C(N)=O` [C12KNC12KNH2], the CC50 at 24 h was more than 16 µM.

Turning to `CCCCCCCCCCCC(=O)N[C@@H](CCCCN)C(=O)NCCCCCCCCCCCC(=O)N[C@@H](CCCCN)C(=O)NCCCCCCCCCCCC(=O)N[C@@H](CCCCN)C(=O)O` [C12K(NC12K)2], the CC50 at 24 h was more than 16 µM. Next, `NCCCC[C@H](NC(=O)CCCCCCCCCCCNC(=O)[C@H](CCCCN)NC(=O)CCCCCCCCCCCNC(=O)[C@H](CCCCN)NC(=O)CCCCCCCCCCCNC(=O)[C@H](CCCCN)NC(=O)CCCCCCCCCCCNC(=O)[C@H](CCCCN)NC(=O)CCCCCCCCCCCNC(=O)[C@H](CCCCN)NC(=O)CCCCCCCCCCCNC(=O)[C@H](CCCCN)NC(=O)CCCCCCCCCCCNC(=O)[C@@H](N)CCCCN)C(N)=O` [K(NC12K)7NH2]: more than 16 µM; `NCCCC[C@H](NC(=O)CCCCCCCCCCCNC(=O)[C@H](CCCCN)NC(=O)CCCCCCCCCCCNC(=O)[C@H](CCCCN)NC(=O)CCCCCCCCCCCNC(=O)[C@@H](N)CCCCN)C(=O)O` [K(NC12K)3]: more than 16 µM. Next, `NCCCC[C@H](NC(=O)CCCCCCCCCCCNC(=O)[C@H](CCCCN)NC(=O)CCCCCCCCCCCNC(=O)[C@H](CCCCN)NC(=O)CCCCCCCCCCCNC(=O)[C@H](CCCCN)NC(=O)CCCCCCCCCCCNC(=O)[C@H](CCCCN)NC(=O)CCCCCCCCCCCNC(=O)[C@@H](N)CCCCN)C(N)=O` [K(NC12K)5NH2]: more than 16 µM; `NCCCCCCCCCCCC(=O)N[C@@H](CCCCN)C(=O)NCCCCCCCCCCCC(=O)N[C@@H](CCCCN)C(=O)NCCCCCCCCCCCC(=O)N[C@@H](CCCCN)C(=O)NCCCCCCCCCCCC(=O)N[C@@H](CCCCN)C(=O)O` [(NC12K)4]: more than 16 µM. Take `NCCCCCCCCCCCC(=O)N[C@@H](CCCCN)C(=O)NCCCCCCCCCCCC(=O)N[C@@H](CCCCN)C(=O)NCCCCCCCCCCCC(=O)N[C@@H](CCCCN)C(=O)NCCCCCCCCCCCC(=O)N[C@@H](CCCCN)C(=O)NCCCCCCCCCCCC(=O)N[C@@H](CCCCN)C(=O)NCCCCCCCCCCCC(=O)N[C@@H](CCCCN)C(=O)NCCCCCCCCCCCC(=O)N[C@@H](CCCCN)C(N)=O` [(NC12K)7NH2]: the CC50 at 24 h is more than 16 µM. The figure for `CCCCCCCCCCCC(=O)N[C@@H](CCCCN)C(=O)NCCCCCCCCCCCC(=O)N[C@@H](CCCCN)C(=O)NCCCCCCCCCCCC(=O)N[C@@H](CCCCN)C(=O)NCCCCCCCCCCCC(=O)N[C@@H](CCCCN)C(N)=O` [C12K(NC12K)3NH2] is more than 16 µM; for `CCCCCCCCCCCC(=O)N[C@@H](CCCCN)C(=O)NCCCCCCCCCCCC(=O)N[C@@H](CCCCN)C(=O)NCCCCCCCCCCCC(=O)N[C@@H](CCCCN)C(=O)NCCCCCCCCCCCC(=O)N[C@@H](CCCCN)C(=O)NCCCCCCCCCCCC(=O)N[C@@H](CCCCN)C(N)=O` [C12K(NC12K)4NH2] it is 37 ± 2.12 µM; for `NCCCC[C@H](NC(=O)CCCCCCCCCCCNC(=O)[C@H](CCCCN)NC(=O)CCCCCCCCCCCNC(=O)[C@H](CCCCN)NC(=O)CCCCCCCCCCCNC(=O)[C@@H](N)CCCCN)C(N)=O` [K(NC12K)3NH2] it is more than 16 µM.

In the case of `NCCCC[C@H](NC(=O)CCCCCCCCCCCNC(=O)[C@H](CCCCN)NC(=O)CCCCCCCCCCCNC(=O)[C@H](CCCCN)NC(=O)CCCCCCCCCCCNC(=O)[C@H](CCCCN)NC(=O)CCCCCCCCCCCNC(=O)[C@H](CCCCN)NC(=O)CCCCCCCCCCCNC(=O)[C@H](CCCCN)NC(=O)CCCCCCCCCCCNC(=O)[C@@H](N)CCCCN)C(N)=O` [K(NC12K)6NH2], the CC50 at 24 h is more than 16 µM.

`NCCCCCCCCCCCC(=O)N[C@@H](CCCCN)C(=O)NCCCCCCCCCCCC(=O)N[C@@H](CCCCN)C(N)=O` [(NC12K)2NH2]: the CC50 at 24 h is more than 16 µM. Next, `CCCCCCCCCCCC(=O)N[C@@H](CCCCN)C(=O)NCCCCCCCC(=O)N[C@@H](CCCCN)C(=O)N[C@@H](CCCCN)C(=O)NCCCCCCCC(=O)N[C@@H](CCCCN)C(N)=O` [C12(KNC8K)2NH2] (Lauroyl-K[Aoc]KK[Aoc]K-NH2): less than 16 µM. For `NCCCC[C@H](NC(=O)CCCCCCCCCCCNC(=O)[C@H](CCCCN)NC(=O)CCCCCCCCCCCNC(=O)[C@@H](N)CCCCN)C(N)=O` [K(NC12K)2NH2], the CC50 at 24 h is more than 16 µM.

As to `NCCCCCCCCCCCC(=O)N[C@@H](CCCCN)C(=O)NCCCCCCCCCCCC(=O)N[C@@H](CCCCN)C(=O)NCCCCCCCCCCCC(=O)N[C@@H](CCCCN)C(=O)NCCCCCCCCCCCC(=O)N[C@@H](CCCCN)C(=O)NCCCCCCCCCCCC(=O)N[C@@H](CCCCN)C(=O)NCCCCCCCCCCCC(=O)N[C@@H](CCCCN)C(=O)NCCCCCCCCCCCC(=O)N[C@@H](CCCCN)C(=O)NCCCCCCCCCCCC(=O)N[C@@H](CCCCN)C(N)=O` [(NC12K)8NH2], the CC50 at 24 h is more than 16 µM.
